In brackets after ≈: the same amount, converted by molar mass.
Key:
[1] = system: Staphylococcus aureus; experiment: Antimicrobial activity against methicillin-susceptible Staphylococcus aureus after 20 to 24 hrs by broth microdilution method; type: functional
[2] = system: Streptococcus sp. 'group A'; experiment: Antimicrobial activity against Streptococcus group A after 20 to 24 hrs by broth microdilution method; type: functional
[3] = system: Enterococcus faecium; experiment: Antibacterial activity against vancomycin-resistant Enterococcus faecium after 20 to 24 hrs by broth microdilution method; type: functional
[4] = system: Streptococcus pneumoniae; experiment: Antibacterial activity against penicillin-susceptible Streptococcus pneumoniae after 20 to 24 hrs by broth microdilution method; type: functional
[5] = system: Enterococcus faecalis; experiment: Antimicrobial activity against vancomycin-susceptible Enterococcus faecalis after 20 to 24 hrs by broth microdilution method; type: functional
[6] = system: Staphylococcus aureus; experiment: Antimicrobial activity against methicillin-resistant Staphylococcus aureus after 20 to 24 hrs by broth microdilution method; type: functional
[7] = system: Streptococcus pneumoniae; experiment: Antibacterial activity against penicillin-intermediate Streptococcus pneumoniae after 20 to 24 hrs by broth microdilution method; type: functional
[8] = system: Enterococcus faecalis; experiment: Antimicrobial activity against vancomycin-resistant Enterococcus faecalis after 20 to 24 hrs by broth microdilution method; type: functional
[9] = system: Streptococcus pneumoniae; experiment: Antibacterial activity against penicillin-resistant Streptococcus pneumoniae after 20 to 24 hrs by broth microdilution method; type: functional
[10] = system: Streptococcus viridans; experiment: Antimicrobial activity against Streptococcus viridans after 20 to 24 hrs by broth microdilution method; type: functional
[11] = system: Enterococcus faecium; experiment: Antibacterial activity against vancomycin-susceptible Enterococcus faecium after 20 to 24 hrs by broth microdilution method; type: functional
[12] = system: Staphylococcus; experiment: Antimicrobial activity against methicillin-resistant coagulase-negative Staphylococcus after 20 to 24 hrs by broth microdilution method; type: functional
[13] = system: Staphylococcus; experiment: Antimicrobial activity against methicillin-susceptible coagulase-negative Staphylococcus after 20 to 24 hrs by broth microdilution method; type: functional
[14] = system: Streptococcus sp. 'group B'; experiment: Antimicrobial activity against Streptococcus group B after 20 to 24 hrs by broth microdilution method; type: functional
[15] = system: Homo sapiens; experiment: Plasma concentration in human at 7.5 mg/kg; type: ADME, organism-based; design: dose 7.5 mg/kg; conditions: in vivo
[16] = Protein binding in human plasma; type: ADME, cell-free; conditions: read-out: PB (converted)

| SMILES | MIC50 [1] [mg/L] | MIC90 [1] [mg/L] | MIC50 [3] [mg/L] | MIC90 [3] [mg/L] | MIC50 [4] [mg/L] | MIC90 [4] [mg/L] | MIC50 [5] [mg/L] | MIC90 [5] [mg/L] | MIC50 [6] [mg/L] | MIC90 [6] [mg/L] | MIC50 [7] [mg/L] | MIC90 [7] [mg/L] | MIC50 [8] [mg/L] | MIC90 [8] [mg/L] | MIC50 [9] [mg/L] | MIC90 [9] [mg/L] | MIC50 [10] [mg/L] | MIC90 [10] [mg/L] | MIC50 [11] [mg/L] | MIC90 [11] [mg/L] | also measured |
| --- | --- | --- | --- | --- | --- | --- | --- | --- | --- | --- | --- | --- | --- | --- | --- | --- | --- | --- | --- | --- | --- |
| CN[C@H](CC(C)C)C(=O)N[C@H]1C(=O)N[C@@H](CC(N)=O)C(=O)N[C@H]2C(=O)N[C@H]3C(=O)N[C@H](C(=O)N[C@H](C(=O)O)c4cc(O)cc(O)c4-c4cc3ccc4O)[C@H](O)c3ccc(c(Cl)c3)Oc3cc2cc(c3O[C@@H]2O[C@H](CO)[C@@H](O)[C@H](O)[C@H]2O[C@H]2C[C@](C)(N)[C@H](O)[C@H](C)O2)Oc2ccc(cc2Cl)[C@H]1O [VANCOMYCIN] | 0.5 (≈ 0.345 µM) | 1 (≈ 0.69 µM) | 512 (≈ 353 µM) | 512 (≈ 353 µM) | 0.25 (≈ 0.173 µM) | 0.5 (≈ 0.345 µM) | 2 (≈ 1.38 µM) | 2 (≈ 1.38 µM) | 1 (≈ 0.69 µM) | 1 (≈ 0.69 µM) | 0.25 (≈ 0.173 µM) | 0.5 (≈ 0.345 µM) | 512 (≈ 353 µM) | > 512 | 0.25 (≈ 0.173 µM) | 0.5 (≈ 0.345 µM) | 0.5 (≈ 0.345 µM) | 1 (≈ 0.69 µM) | 1 (≈ 0.69 µM) | 1 (≈ 0.69 µM) | MIC [2]: 0.25 mg/L (≈ 0.173 µM); MIC50 [2]: 0.25 mg/L (≈ 0.173 µM); MIC90 [2]: 0.5 mg/L (≈ 0.345 µM); MIC [4]: 0.25 mg/L (≈ 0.173 µM); MIC [7]: 0.25 mg/L (≈ 0.173 µM); MIC [9]: 0.25 mg/L (≈ 0.173 µM); MIC50 [12]: 1 mg/L (≈ 0.69 µM); MIC90 [12]: 2 mg/L (≈ 1.38 µM); MIC50 [13]: 1 mg/L (≈ 0.69 µM); MIC90 [13]: 2 mg/L (≈ 1.38 µM); MIC50 [14]: 0.5 mg/L (≈ 0.345 µM); MIC90 [14]: 0.5 mg/L (≈ 0.345 µM) |
| CCCCCCCCCC(=O)N[C@@H](Cc1c[nH]c2ccccc12)C(=O)N[C@H](CC(N)=O)C(=O)N[C@@H](CC(=O)O)C(=O)N[C@@H]1C(=O)NCC(=O)N[C@@H](CCCN)C(=O)N[C@@H](CC(=O)O)C(=O)N[C@H](C)C(=O)N[C@@H](CC(=O)O)C(=O)NCC(=O)N[C@H](CO)C(=O)N[C@@H]([C@H](C)CC(=O)O)C(=O)N[C@@H](CC(=O)c2ccccc2N)C(=O)O[C@@H]1C | 0.25 (≈ 0.154 µM) | 0.5 (≈ 0.309 µM) | 2 (≈ 1.23 µM) | 2 (≈ 1.23 µM) | 0.12 (≈ 0.074 µM) | 0.25 (≈ 0.154 µM) | 1 (≈ 0.617 µM) | 2 (≈ 1.23 µM) | 0.5 (≈ 0.309 µM) | 0.5 (≈ 0.309 µM) | 0.12 (≈ 0.074 µM) | 0.25 (≈ 0.154 µM) | 0.5 (≈ 0.309 µM) | 2 (≈ 1.23 µM) | 0.12 (≈ 0.074 µM) | 0.12 (≈ 0.074 µM) | 0.5 (≈ 0.309 µM) | 1 (≈ 0.617 µM) | 2 (≈ 1.23 µM) | 4 (≈ 2.47 µM) | MIC50 [2]: 0.06 mg/L (≈ 0.037 µM); MIC90 [2]: 0.06 mg/L (≈ 0.037 µM); MIC [8]: 0.5 mg/L (≈ 0.309 µM); MIC50 [12]: 0.5 mg/L (≈ 0.309 µM); MIC90 [12]: 0.5 mg/L (≈ 0.309 µM); MIC50 [13]: 0.5 mg/L (≈ 0.309 µM); MIC90 [13]: 1 mg/L (≈ 0.617 µM); MIC50 [14]: 0.25 mg/L (≈ 0.154 µM); MIC90 [14]: 0.25 mg/L (≈ 0.154 µM) |
| CC1(C)S[C@@H]2[C@H](NC(=O)[C@H](N)c3ccccc3)C(=O)N2[C@H]1C(=O)O [AMPICILLIN] | – | – | 128 (≈ 366 µM) | 128 (≈ 366 µM) | – | – | 1 (≈ 2.86 µM) | 2 (≈ 5.72 µM) | – | – | – | – | 1 (≈ 2.86 µM) | 4 (≈ 11.4 µM) | – | – | – | – | 64 (≈ 183 µM) | 128 (≈ 366 µM) | MIC [8]: 1 mg/L (≈ 2.86 µM) |
| CCCCCCCCCCNCCN[C@@]1(C)C[C@H](O[C@H]2[C@H](Oc3c4cc5cc3Oc3ccc(cc3Cl)[C@@H](O)[C@@H](NC(=O)[C@@H](CC(C)C)NC)C(=O)N[C@@H](CC(N)=O)C(=O)N[C@H]5C(=O)N[C@H]3C(=O)N[C@H](C(=O)N[C@H](C(=O)O)c5cc(O)c(CNCP(=O)(O)O)c(O)c5-c5cc3ccc5O)[C@H](O)c3ccc(c(Cl)c3)O4)O[C@H](CO)[C@@H](O)[C@@H]2O)O[C@@H](C)[C@H]1O [TELAVANCIN] | 0.25 (≈ 0.142 µM) | 0.25 (≈ 0.142 µM) | 1 (≈ 0.57 µM) | 2 (≈ 1.14 µM) | 0.015 (≈ 0.00854 µM) | 0.03 (≈ 0.0171 µM) | 0.25 (≈ 0.142 µM) | 0.5 (≈ 0.285 µM) | 0.25 (≈ 0.142 µM) | 0.25 (≈ 0.142 µM) | 0.015 (≈ 0.00854 µM) | 0.03 (≈ 0.0171 µM) | 4 (≈ 2.28 µM) | 8 (≈ 4.56 µM) | 0.015 (≈ 0.00854 µM) | 0.03 (≈ 0.0171 µM) | 0.06 (≈ 0.0342 µM) | 0.06 (≈ 0.0342 µM) | 0.12 (≈ 0.0684 µM) | 0.25 (≈ 0.142 µM) | MIC [2]: 0.03 mg/L (≈ 0.0171 µM); MIC50 [2]: 0.03 mg/L (≈ 0.0171 µM); MIC90 [2]: 0.06 mg/L (≈ 0.0342 µM); Cp [15]: 96.7 µg/mL; MIC [9]: 0.015 mg/L (≈ 0.00854 µM); MIC50 [12]: 0.25 mg/L (≈ 0.142 µM); MIC90 [12]: 0.25 mg/L (≈ 0.142 µM); MIC50 [13]: 0.25 mg/L (≈ 0.142 µM); MIC90 [13]: 0.25 mg/L (≈ 0.142 µM); fraction unbound [16]: 0.1; MIC50 [14]: 0.06 mg/L (≈ 0.0342 µM); MIC90 [14]: 0.06 mg/L (≈ 0.0342 µM) |
| CC(=O)NC[C@H]1CN(c2ccc(N3CCOCC3)c(F)c2)C(=O)O1 [LINEZOLID] | 2 (≈ 5.93 µM) | 2 (≈ 5.93 µM) | 2 (≈ 5.93 µM) | 2 (≈ 5.93 µM) | 1 (≈ 2.96 µM) | 1 (≈ 2.96 µM) | 2 (≈ 5.93 µM) | 2 (≈ 5.93 µM) | 2 (≈ 5.93 µM) | 2 (≈ 5.93 µM) | 1 (≈ 2.96 µM) | 1 (≈ 2.96 µM) | 2 (≈ 5.93 µM) | 2 (≈ 5.93 µM) | 1 (≈ 2.96 µM) | 1 (≈ 2.96 µM) | 1 (≈ 2.96 µM) | 1 (≈ 2.96 µM) | 2 (≈ 5.93 µM) | 2 (≈ 5.93 µM) | MIC50 [12]: 2 mg/L (≈ 5.93 µM); MIC90 [12]: 2 mg/L (≈ 5.93 µM); MIC [13]: 1 mg/L (≈ 2.96 µM); MIC50 [13]: 1 mg/L (≈ 2.96 µM); MIC90 [13]: 2 mg/L (≈ 5.93 µM); MIC50 [14]: 1 mg/L (≈ 2.96 µM); MIC90 [14]: 1 mg/L (≈ 2.96 µM) |

Reference: ChEMBL document CHEMBL1154412, “In vitro activity of telavancin against gram-positive clinical isolates recently obtained in Europe” (Antimicrob Agents Chemother, 2007)
